This data set is described as follows: xn = mol fraction of the nth substance listed. The note with it: 100 kPa, Liquid, Taylor dispersion method, x1 = 0.

In the NIST ThermoML archive (doi:10.1021/je0601816) one finds binary diffusion coefficient data, which are given here for 6 molecules.

Regarding `O=C[C@H](O)[C@@H](O)[C@@H](O)[C@H](O)CO` [(+)-galactose] + O, the binary diffusion coefficient is, setting by setting: (273.2 K) 3.19e-10 m2/s; (293.2 K) 6.25e-10 m2/s; (298.2 K) 7.06e-10 m2/s; (313.2 K) 1.01e-09 m2/s; (333.2 K) 1.51e-09 m2/s; (353.2 K) 2.17e-09 m2/s.

As to `O=C[C@H](O)[C@@H](O)[C@H](O)[C@H](O)CO` [D-glucose] + O, the binary diffusion coefficient is 3.23e-10 m2/s (273.2 K); 6.05e-10 m2/s (293.2 K); 6.76e-10 m2/s (298.2 K); 9.97e-10 m2/s (313.2 K); 1.49e-09 m2/s (333.2 K); 2.13e-09 m2/s (353.2 K).

Turning to `O=C[C@@H](O)[C@@H](O)[C@H](O)[C@H](O)CO` [D-mannose] + O, the binary diffusion coefficient is 3.34e-10 m2/s (273.2 K); 6.2e-10 m2/s (293.2 K); 7.04e-10 m2/s (298.2 K); 1.02e-09 m2/s (313.2 K); 1.59e-09 m2/s (333.2 K); 2.16e-09 m2/s (353.2 K).

Regarding `OC[C@H]1O[C@@](CO)(O[C@H]2O[C@H](CO)[C@@H](O)[C@H](O)[C@H]2O)[C@@H](O)[C@@H]1O` [D-sucrose] + O, the binary diffusion coefficient (273.2 K) came to 2.55e-10 m2/s; the binary diffusion coefficient (293.2 K) turned out to be 4.87e-10 m2/s; the binary diffusion coefficient (298.2 K) amounted to 5.46e-10 m2/s; the binary diffusion coefficient (313.2 K) turned out to be 7.92e-10 m2/s; the binary diffusion coefficient (333.2 K) was determined as 1.17e-09 m2/s; the binary diffusion coefficient (353.2 K) was determined as 1.69e-09 m2/s.

Turning to `O=C[C@@H](O)[C@H](O)[C@H](O)CO` [D-(-)-arabinose] + O, the binary diffusion coefficient is, setting by setting: (273.2 K) 3.59e-10 m2/s; (293.2 K) 6.82e-10 m2/s; (298.2 K) 7.73e-10 m2/s; (313.2 K) 1.11e-09 m2/s; (333.2 K) 1.67e-09 m2/s; (353.2 K) 2.37e-09 m2/s.

In the case of `O=C[C@H](O)[C@@H](O)[C@H](O)CO` [D-xylose] + O, the binary diffusion coefficient by setting is: (273.2 K) 3.48e-10 m2/s; (293.2 K) 6.65e-10 m2/s; (298.2 K) 7.69e-10 m2/s; (313.2 K) 1.11e-09 m2/s; (333.2 K) 1.64e-09 m2/s; (353.2 K) 2.33e-09 m2/s.
